Source: patent US20250049787A1, “TREATMENT FOR ACUTE MYELOID LEUKEMIA OR LYMPHOMA” (UNIVERSITY HEALTH NETWORK, priority 2021, published 2025)
pEC50, pIC50: −log10 of the molar value. Structures can show the parent of a compound that is named as a salt.

Assays:
[1] = tested on: SLP-76 Ser376 phosphorylation; experiment: Phospho-SLP-76 (Ser376) sandwich ELISA in anti-CD3 stimulated Jurkat E6.1 cells; assay type: cell-based; settings: Homo sapiens, 3 hours pretreatment, anti-CD3 (OKT3) 5 μg/mL 15 minutes
Method: Jurkat E6.1 cells were starved overnight in RPMI-1640 medium (Invitrogen) without fetal bovine serum (FBS). Starved cells (2×10^6 per sample in 1 mL) were pretreated with Compound (I) tartrate for 3 hours and then stimulated with 5 μg/mL anti-CD3 antibody (clone OKT3) for 15 minutes. Cells were immediately lysed in cell lysis buffer plus protease and phosphatase inhibitors, and then assayed for SLP-76 Ser376 phosphorylation with the PathScan Phospho-SLP-76 (Ser376) Sandwich ELISA Kit according to the kit instructions (Cell Signaling Technology, Inc.). Duplicate data points for each concentration were collected (Molecular Devices M5). Raw absorbance (A=450 nm) values were background subtracted and then individual values were averaged for each Compound (I) tartrate concentration. The cellular EC50 was determined using a simple one-site dose-response curve fitting model (XLfit4, IDBS).

KOPN-8 = experiment: Growth inhibition, Alamar Blue; assay type: cell-based; settings: Homo sapiens, 72 h; KOPN-8, B-ALL; 3 days
Method: (§1) Cell lines were obtained from American Type Culture Collection (ATCC) and maintained according to the supplier's instructions, and from Dr. Mark Minden (Princess Margaret Cancer Centre, Toronto, Canada). Short tandem repeat (STR) profiling was used to verify authenticity of the cell lines. Peripheral blood from healthy human donors was obtained from the Hematology Malignancy Tissue Bank at the University Health Network. Peripheral blood mononuclear cells (PBMC) were prepared from the blood by density gradient centrifugation using Ficoll-Paque PLUS by manufacturer's instructions (GE Healthcare Life Sciences). […] Compound (I) tartrate was prepared as a 10 mM stock solution in 100% DMSO. The stock solution was diluted with RPMI-1640 (Invitrogen) containing 10% FBS (fetal bovine serum) such that the final concentrations ranged from 300 fM to 300 μM. Aliquots (20 μL) from each concentration were overlaid to 180 μL of pre-seeded cells to achieve final concentrations of 30 fM to 30 μM. After 3 days, cell growth in each well was assessed by Alamar Blue assay reagent (Invitrogen). Raw fluorescence (λEM=590 nm) values were adjusted by subtracting the average of the baseline readings from untreated cells assessed one day after cell seeding. Relative cell growth was calculated by comparing to DMSO-treated cells. The concentrations at which cell growth was inhibited by 50% (growth inhibition IC50) were calculated using GraphPad PRISM software (GraphPad Software Inc.).

OCI-LY18 = experiment: Growth inhibition, Alamar Blue; assay type: cell-based; settings: Homo sapiens, 72 h; OCI-LY18, NHL, GCB-DLBCL; 3 days
Method: as §1

OCI-AML2 = experiment: Growth inhibition, Alamar Blue; assay type: cell-based; settings: Homo sapiens, 72 h; OCI-AML2, AML M4; 3 days
Method: as §1

MOLT-4 = experiment: Growth inhibition, Alamar Blue; assay type: cell-based; settings: Homo sapiens, 72 h; MOLT-4, T-ALL; 3 days
Method: as §1

NB4 = experiment: Growth inhibition, Alamar Blue; assay type: cell-based; settings: Homo sapiens, NB-4, 72 h; NB4, AML M3; 3 days
Method: as §1

MOLM-13 = experiment: Growth inhibition, Alamar Blue; assay type: cell-based; settings: Homo sapiens, 72 h; MOLM-13, AML M5; FLT3 ITD + wild-type, protein not expressed; 3 days
Method: as §1

THP-1 = experiment: Growth inhibition, Alamar Blue; assay type: cell-based; settings: Homo sapiens, 72 h; THP-1, AML M5; FLT3 wild-type, protein expressed; 3 days
Method: as §1

OCI-LY3 = experiment: Growth inhibition, Alamar Blue; assay type: cell-based; settings: Homo sapiens, 72 h; OCI-LY3, NHL, ABC-DLBCL; 3 days
Method: as §1

OCI-LY10 = experiment: Growth inhibition, Alamar Blue; assay type: cell-based; settings: Homo sapiens, 72 h; OCI-LY10, NHL, ABC-DLBCL; 3 days
Method: as §1

K562 = experiment: Growth inhibition, Alamar Blue; assay type: cell-based; settings: Homo sapiens, 72 h; K562, CML; 3 days
Method: as §1

REH = experiment: Growth inhibition, Alamar Blue; assay type: cell-based; settings: Homo sapiens, 72 h, B-ALL, 3 days
Method: as §1

MOLM-14 = experiment: Growth inhibition, Alamar Blue; assay type: cell-based; settings: Homo sapiens, 72 h; MOLM-14, AML M5; FLT3 ITD + wild-type, protein expressed; 3 days
Method: as §1

RS4; 11 = experiment: Growth inhibition, Alamar Blue; assay type: cell-based; settings: Homo sapiens, 72 h, 11, B-ALL, 3 days
Method: as §1

OCI-AML4 = experiment: Growth inhibition, Alamar Blue; assay type: cell-based; settings: Homo sapiens, 72 h; OCI-AML4, AML M4; 3 days
Method: as §1

HL-60 = experiment: Growth inhibition, Alamar Blue; assay type: cell-based; settings: Homo sapiens, 72 h; HL-60, AML M2; FLT3 wild-type, protein expressed; 3 days
Method: as §1

OCI-LY8 = experiment: Growth inhibition, Alamar Blue; assay type: cell-based; settings: Homo sapiens, 72 h; OCI-LY8, NHL, GCB-DLBCL; 3 days
Method: as §1

JURKAT = experiment: Growth inhibition, Alamar Blue; assay type: cell-based; settings: Homo sapiens, 72 h, T-ALL, 3 days
Method: as §1

DAUDI = experiment: Growth inhibition, Alamar Blue; assay type: cell-based; settings: Homo sapiens, 72 h, NHL, Burkitt's lymphoma, 3 days
Method: as §1

U937 = experiment: Growth inhibition, Alamar Blue; assay type: cell-based; settings: Homo sapiens, U-937, 72 h; U937, AML M5; 3 days
Method: as §1

[2] = tested on: PARP cleavage (apoptotic cell death); experiment: Immunoblot of PARP cleavage in MV-4-11 cells; assay type: cell-based, human; settings: 4 hours
Method: MV-4-11 cells (FLT3 LOH, FLT3-ITD positive cells) were treated with the indicated concentrations of Compound (I) tartrate for 4 hours at 37° C. and 5% CO2. Lysates were analyzed by immunoblot analysis with antibodies against FLT3 (Cell Signaling Technology, Inc., Cat. #3462), PARP (Cell Signaling Technology, Inc., Cat. #9542) and GAPDH (Millipore, Cat. #MAB374). Protein bands were visualized using a LI-COR Odyssey near infrared imager and representative data are shown. Compound (I) tartrate treatment increases the expression of the mature 160 kDa form of FLT3-ITD in MV-4-11 cells in a dose-dependent manner. Apoptotic cell death as measured by PARP cleavage was induced by Compound (I) tartrate treatment.

`CN1CCN(c2ccc3nc(-c4c(N)c5ccsc5[nH]c4=O)[nH]c3c2)CC1` [Compound (I) tartrate, 4-amino-5-(6-(4-methylpiperazin-1-yl)-1H-benzo[d]imidazol-2-yl)thieno[2,3-b]pyridin-6(7H)-one] was tested. Which pEC50 [1] did it give?
Its pEC50 is 7.62.

What about the pIC50 (KOPN-8) of the same compound?
The pIC50 was 5.48.

What about the pIC50 (OCI-LY18) of the same compound?
The pIC50 was 7.05.

What about the pIC50 (OCI-AML2) of the same compound?
The pIC50 was 5.82.

And the pIC50 (MOLT-4)?
The pIC50 was 5.80.

What about the pIC50 (NB4) of the same compound?
The pIC50 was 6.03.

And the pIC50 (MOLM-13)?
The pIC50 was 5.72.

What about the pIC50 (THP-1) of the same compound?
The pIC50 was 5.89.

What about the pIC50 (OCI-LY3) of the same compound?
Its pIC50 is 6.62.

What about the pIC50 (OCI-LY10) of the same compound?
Its pIC50 is 6.24.

What about the pIC50 (K562) of the same compound?
Its pIC50 is 5.22.

And the pIC50 (REH)?
Its pIC50 is 5.85.

And the pIC50 (MOLM-14)?
Its pIC50 is 8.33.

And the pIC50 (RS4; 11)?
Its pIC50 is 5.77.

And the pIC50 (OCI-AML4)?
Its pIC50 is 6.80.

What about the pIC50 (HL-60) of the same compound?
Its pIC50 is 5.92.

And the pIC50 (OCI-LY8)?
Its pIC50 is 5.44.

And the pIC50 (JURKAT)?
Its pIC50 is 5.47.

What about the pIC50 (DAUDI) of the same compound?
The pIC50 was 5.89.

And the pIC50 (U937)?
The pIC50 was 6.11.

What about the “apoptotic cell death as measured by PARP cleavage” value [2] of the same compound?
Its value is “induced”.
